The source made the active and inactive calls.
How the values were obtained:
[1] = anti-trypanosomal activity in BESM host cells – imaging, CA-I/72 strain, bovine embryo skeletal muscle, dry powder, dose response (AID 651885); assay type: functional, cell-based
[2] = IGROV1 cell killing – plate reader, dry powder samples, PAX8 inhibitor project, dose response (AID 743043); assay type: functional, cell-based; conditions: IGROV-1
[3] = OVCAR-3 cell viability loss – plate reader, dry powder samples, PAX8 inhibitor project, dose response (AID 743044); assay type: functional, cell-based
[4] = OVCAR8 cell viability loss – plate reader, dry powder samples, PAX8 project, dose response (AID 743197); assay type: functional, cell-based; conditions: OVCAR-8
Paired box protein Pax-8 = Paired box protein Pax-8 (Homo sapiens, UniProt Q06710); experiment: PAX8 transcriptional activity inhibition in RMG-I – RMG-I cells, luciferase, cherry-pick, dose response (AID 687027); assay type: functional, cell-based;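 note: luciferase reporter driven by Pax8 target thyroperoxidase promoter measured by SteadyGlo luminescence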
[5] = human cervical cancer cell viability loss – 24 h, plate reader, dry powder, cytotoxicity control, dose response (AID 686928); assay type: functional, cell-based; conditions: HeLa
[6] = target: T1, Serine/threonine-protein phosphatase (Candida dubliniensis (strain CD36 / CBS 7987 / NCPF 3949 / NRRLY-17841) (Yeast), UniProt B9W6M3); experiment: Fluorescence Cell-Based Secondary Assay to Identify Inhibitors of Calcineurin. [Related pubchem assays (depositor defined):AID1979, AID2007]; assay type: functional
T1 sequence (B9W6M3 whole entry): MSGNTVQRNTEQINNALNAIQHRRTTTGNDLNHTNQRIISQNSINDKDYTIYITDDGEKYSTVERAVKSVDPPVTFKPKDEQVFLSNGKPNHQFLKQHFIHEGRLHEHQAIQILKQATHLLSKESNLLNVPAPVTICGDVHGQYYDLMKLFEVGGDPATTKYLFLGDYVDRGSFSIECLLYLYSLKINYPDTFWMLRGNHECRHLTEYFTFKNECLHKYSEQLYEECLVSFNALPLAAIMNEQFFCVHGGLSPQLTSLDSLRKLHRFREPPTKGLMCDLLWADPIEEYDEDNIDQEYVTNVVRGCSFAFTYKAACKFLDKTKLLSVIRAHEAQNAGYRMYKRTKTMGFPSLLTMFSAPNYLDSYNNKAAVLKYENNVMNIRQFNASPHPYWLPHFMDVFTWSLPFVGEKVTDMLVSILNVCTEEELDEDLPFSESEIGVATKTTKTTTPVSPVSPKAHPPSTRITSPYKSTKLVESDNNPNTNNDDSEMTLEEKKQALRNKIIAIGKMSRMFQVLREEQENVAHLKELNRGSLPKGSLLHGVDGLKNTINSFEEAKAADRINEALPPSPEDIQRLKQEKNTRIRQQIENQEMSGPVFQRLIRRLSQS

[7] = loss of viability in HepG2 cells – cell-based, CellTiter-Glo, cherry-picked, cytotoxicity control for Shn3 inhibitor project, dose response (AID 624134); assay type: functional
[8] = target: ATP-dependent molecular chaperone HSP82 (Candida albicans (strain WO-1) (Yeast), UniProt C4YTQ8); experiment: steroid-induced GRE reporter decrease in yeast – S. cerevisiae, luminescence, Hsp90 inhibitor project, dose response (AID 2400); assay type: functional, cell-based;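 note: beta-galactosidase luminescence from glucocorticoid response element reporter as proxy for Hsp90 function; inhibitor potency where signal loss means Hsp90 inhibition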
[9] = non-specific 3'UTR reporter inhibition in Clone20-Shn3RL – cell-based, Renilla luciferase, cherry-picked, counter-screen for Shn3 inhibitor project, dose response (AID 624133); assay type: functional
[10] = Shn3 3'UTR reporter signal decrease – cell-based, Clone20 osteoblasts, firefly luciferase, cherry-pick, set 2, Schnurri-3 inhibitor project, dose response (AID 720490); assay type: functional;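 note: actives lower the luminescence signal as inhibitors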
Protein skinhead-1 = target: T2, Protein skinhead-1 (Caenorhabditis elegans, UniProt P34707); assay type: functional
T2 sequence (P34707 whole entry): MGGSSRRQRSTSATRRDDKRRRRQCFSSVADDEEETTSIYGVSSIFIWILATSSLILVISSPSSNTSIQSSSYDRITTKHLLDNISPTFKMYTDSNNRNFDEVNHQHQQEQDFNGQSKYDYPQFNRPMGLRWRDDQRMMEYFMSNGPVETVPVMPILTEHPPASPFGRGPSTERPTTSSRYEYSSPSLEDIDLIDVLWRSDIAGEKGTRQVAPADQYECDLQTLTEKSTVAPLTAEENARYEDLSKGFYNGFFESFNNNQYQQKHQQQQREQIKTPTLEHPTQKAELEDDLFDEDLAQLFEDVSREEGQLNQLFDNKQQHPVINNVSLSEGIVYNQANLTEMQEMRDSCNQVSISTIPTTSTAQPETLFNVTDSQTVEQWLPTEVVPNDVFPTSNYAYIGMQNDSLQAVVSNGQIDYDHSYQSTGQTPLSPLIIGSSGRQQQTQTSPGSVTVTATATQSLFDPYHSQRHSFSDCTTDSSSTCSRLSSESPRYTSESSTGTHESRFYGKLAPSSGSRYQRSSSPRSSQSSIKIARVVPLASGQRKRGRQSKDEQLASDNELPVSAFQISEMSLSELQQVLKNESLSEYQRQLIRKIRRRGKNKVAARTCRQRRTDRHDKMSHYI

[11] = fluconazole-exposed Candida albicans growth modulators – fluorescence, retest, confirmation (AID 2467); assay type: functional, cell-based
[12] = EF1alpha-driven Renilla reporter with control 3'UTR suppression – Clone20-Shn3RL cells, dual-Glo, cherry-pick, set 2, counter-screen for Shn3 3'UTR targeting project, dose response (AID 720724); assay type: functional, cell-based; conditions: Dual-Go Shn3RL
INS1 = experiment: INS-1E survival protection against cytokine death – cell-based, luminescence, retest, dose response (AID 449756); assay type: functional; conditions: Rattus norvegicus;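 note: cell death triggered by IL-1 beta plus TNF-alpha plus IFN-gamma mixture; protective hits raise ATP signal compared with cytokine alone wells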
[13] = target: T1, Serine/threonine-protein phosphatase; experiment: blockers of CaCl2-induced CDRE-lacZ signaling – S. cerevisiae, luminescence, secondary, dose response (AID 2388); assay type: functional, cell-based;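 note: yeast reporter cells carrying a calcineurin-responsive lacZ construct stimulated with calcium chloride; luminescent beta-galactosidase reporter signal in whole cells rather than isolated phosphatase activity; potency for inhibition where a drop in reporter signal means calcineurin blockade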
[14] = reduction of Shn3 3'UTR-driven luciferase in osteoblasts – cell-based, Clone20 osteoblasts, firefly luciferase, cherry-picked, dose response (AID 624132); assay type: functional;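 note: firefly luciferase luminescence from reporter carrying the Shn3 3'UTR in osteoblasts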
[15] = NIH-3T3 fibroblast cytotoxicity, dose response, cytotoxicity control, cell-based, fluorescence, Alamar Blue, secondary assay (AID 2327); assay type: functional;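 note: NIH-3T3 mouse fibroblasts cultured with fluconazole at 8 µg/mL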
[16] = HIV-1 AD8 envelope cell-cell fusion blockers – cherry-pick, dose response (AID 652062); assay type: functional, cell-based;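 note: luciferase signal from cell-cell fusion driven by HIV-1 clade B AD8 Env; potency is for inhibitors of fusion seen as a drop in luminescence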
[17] = NIH3T3 cell viability loss – ATP luminescence, mouse fibroblasts, counter-screen, dose response (AID 2010); assay type: functional, cell-based;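 note: cells exposed to compound for about 90 hours before reading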
[18] = off-target signal loss in HeLa-CEM21 co-culture – HeLa F-luc CTL cells, cherry-picked, counter-screen for HIV-1 Env fusion inhibitor project, dose response (AID 652040); assay type: functional, cell-based;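 note: potency for signal decrease marking cytotoxic or nonspecific inhibition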
[19] = blockers of HIV-1 ZM109 envelope-driven cell-cell fusion – HeLa effector, CEM target cells, luciferase, cherry-pick, dose response (AID 652058); assay type: functional, cell-based;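 note: luciferase signal from HIV-1 Env mediated cell-cell fusion of effector and target cells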
[20] = Trypanosoma cruzi growth suppression in host cells – NIH3T3 host cells, beta-gal luminescence, confirmation (AID 2044); assay type: functional, cell-based;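 note: intracellular parasites grown in NIH/3T3 mouse fibroblasts as host cells; luminescent beta-galactosidase reporter signal from transgenic T. cruzi replicating inside host cells; inhibitors lower the luminescence signal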
[21] = blockers of HIV-1 envelope-mediated cell-cell fusion – cherry-pick, dose response (AID 652057); assay type: functional, cell-based
[22] = viability loss in CEM21 cells – cell-based, CellTiter-Glo luminescence, cherry-picked, cytotoxicity control for viral fusion inhibitor project, dose response (AID 652042); assay type: functional;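 note: potency for signal decrease meaning cytotoxicity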
[23] = target: Fructose-bisphosphate aldolase (Mycobacterium tuberculosis, UniProt P9WQA3); experiment: Fluorescence-based biochemical high throughput dose response assay for inhibitors of the fructose-bisphosphate aldolase (FBA) of M. tuberculosis.; assay type: functional
H4 = experiment: Luminescence Cell-Based Dose Response HTS to Identify Activators of 5'UTR Stem-Loop Driven Prion Protein mRNA Translation in H4 Neuroglioblastoma Cells. [Related pubchem assays: 1829 (Project Summary), 1814 (Primary HTS)]; assay type: functional; conditions: Homo sapiens
[24] = Luminescence Cell-Based Dose Response HTS to Identify Activators of Luciferase Translation or Activity in H4 […] Cells. [Related pubchem assays: 1829 (Project Summary), 1814 (Primary HTS)]; assay type: functional
[25] = Luminescence Cell-Based Dose Confirmation HTS to Identify Activators of 5'UTR Stem-Loop Driven Alpha-Synuclein mRNA Translation in H4 Neuroglioblastoma Cells. [Related pubchem assays: 1829 (Project Summary), 1814 (Primary HTS)]; assay type: functional

Chain of ATP-dependent molecular chaperone HSP82 (C4YTQ8 whole entry): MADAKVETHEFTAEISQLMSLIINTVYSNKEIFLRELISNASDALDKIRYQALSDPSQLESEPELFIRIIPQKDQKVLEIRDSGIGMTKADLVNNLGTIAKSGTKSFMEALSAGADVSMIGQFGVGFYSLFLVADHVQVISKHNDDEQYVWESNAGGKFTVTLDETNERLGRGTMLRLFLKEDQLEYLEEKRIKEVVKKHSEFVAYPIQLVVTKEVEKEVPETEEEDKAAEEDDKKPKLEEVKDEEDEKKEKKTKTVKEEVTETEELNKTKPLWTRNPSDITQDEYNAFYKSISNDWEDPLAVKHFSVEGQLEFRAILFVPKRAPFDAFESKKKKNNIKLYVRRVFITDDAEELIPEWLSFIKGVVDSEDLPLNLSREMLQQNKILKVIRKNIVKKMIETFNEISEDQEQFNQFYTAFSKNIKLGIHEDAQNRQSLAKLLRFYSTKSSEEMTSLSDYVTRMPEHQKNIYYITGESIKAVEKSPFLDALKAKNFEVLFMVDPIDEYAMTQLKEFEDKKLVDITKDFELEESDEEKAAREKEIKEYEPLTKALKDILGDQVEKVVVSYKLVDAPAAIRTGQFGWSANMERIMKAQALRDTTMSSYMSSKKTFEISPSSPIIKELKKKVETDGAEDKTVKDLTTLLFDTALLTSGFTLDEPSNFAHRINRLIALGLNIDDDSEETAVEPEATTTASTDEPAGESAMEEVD
Chain of Fructose-bisphosphate aldolase (P9WQA3 whole entry): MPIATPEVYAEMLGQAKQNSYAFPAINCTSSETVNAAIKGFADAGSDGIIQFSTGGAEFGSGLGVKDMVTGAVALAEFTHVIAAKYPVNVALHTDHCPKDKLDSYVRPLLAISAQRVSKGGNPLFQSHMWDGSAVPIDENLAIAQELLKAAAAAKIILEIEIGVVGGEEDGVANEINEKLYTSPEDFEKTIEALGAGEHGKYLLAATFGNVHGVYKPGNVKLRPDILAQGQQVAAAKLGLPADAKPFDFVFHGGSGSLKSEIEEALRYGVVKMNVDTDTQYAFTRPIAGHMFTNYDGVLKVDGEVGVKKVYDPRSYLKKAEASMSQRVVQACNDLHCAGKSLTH
Chain of Paired box protein Pax-8 (Q06710 whole entry): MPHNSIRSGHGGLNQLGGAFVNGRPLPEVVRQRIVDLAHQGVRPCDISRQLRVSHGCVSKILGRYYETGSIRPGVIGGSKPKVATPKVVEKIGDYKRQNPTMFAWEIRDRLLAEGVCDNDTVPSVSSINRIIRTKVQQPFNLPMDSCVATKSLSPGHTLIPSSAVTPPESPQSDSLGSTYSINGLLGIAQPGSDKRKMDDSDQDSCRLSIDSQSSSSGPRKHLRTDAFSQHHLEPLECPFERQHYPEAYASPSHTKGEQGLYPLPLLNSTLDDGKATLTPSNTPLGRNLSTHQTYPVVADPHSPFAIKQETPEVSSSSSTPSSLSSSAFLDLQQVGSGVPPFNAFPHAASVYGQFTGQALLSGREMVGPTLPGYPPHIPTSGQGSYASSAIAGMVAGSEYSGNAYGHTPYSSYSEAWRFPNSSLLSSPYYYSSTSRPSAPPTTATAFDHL

CNC[C@@H]1Oc2c(NC(=O)c3ccncc3)cccc2C(=O)N(C(C)C)C[C@H]1C
IC50 [1]: > 20 µM (inactive)

Cc1ccc(S(=O)(=O)N(C)C[C@H]2OCCCC[C@H](C)Oc3ccc(NS(=O)(=O)c4ccc(Cl)cc4)cc3C(=O)N([C@H](C)CO)C[C@@H]2C)cc1
AC50 [2]: 45.7 µM (active)
AC50 [3]: 17.9 µM (active)
AC50 [4]: 31.7 µM (active)
AC50 (Paired box protein Pax-8): 4.09 µM (active)

O=c1ncn(-c2cccc(Cl)c2)c2cc(Cl)ccc12
AC50 [5]: > 160 µM (inactive)

Cc1nc2ccccc2cc1OCc1ccc(F)cc1
EC50 [6]: > 285 µM (inactive)
AC50 [7]: 41.7 µM (active)
EC50 [8]: 21.1 µM (active)
AC50 [9]: 22.1 µM (active)
AC50 [10]: 2.05 µM (active)
IC50 (Protein skinhead-1): 12.2 µM (active)
EC50 [11]: 1.58 µM (active)
AC50 [12]: 4.87 µM (active)
AC50 (INS1): 4.84 µM (active)
EC50 [13]: > 180 µM (inactive)
AC50 [14]: 1.7 µM (active)
EC50 [15]: > 160 µM (inactive)

CCN(CC(O)CON=C1c2ccccc2-c2ccccc21)S(=O)(=O)c1ccc(Cl)cc1 (centres undefined)
AC50 [16]: 28.6 µM (active)
EC50 [17]: > 60 µM (not active)
AC50 [18]: 10.1 µM (active)
AC50 [19]: 16.3 µM (active)
EC50 [20]: 2.15 µM (active)
AC50 [21]: 5.8 µM (active)
AC50 [22]: 29.3 µM (active)

Cc1ccc(C2CC(c3ccccc3)=NN2c2ccccc2)o1 (centres undefined)
IC50 [23]: > 0.37 µM (active)
EC50 (H4): 27.9 µM (active)
EC50 [24]: > 120 µM (not active)
EC50 [25]: 111 µM (active)

— ChEMBL document CHEMBL1201862, “PubChem BioAssay data set” (2004)
